Measurements: ChEMBL document CHEMBL1139208, “An efficient and stereoselective dearylation of asarinin and sesamin tetrahydrofurofuran lignans to acuminatolide by methyltrioxorhenium/H(2)O(2) and UHP systems” (J Nat Prod, 2007)

Test system: NIH3T3
Experiment: Cytotoxicity against murine 3T3 cells by MTT assay
Format: cell-based
Conditions: Mus musculus

Compound | IC50
O=C1OC[C@H]2[C@@H]1CO[C@H]2c1ccc2c(c1)OCO2 | > 20000 nM
c1cc2c(cc1[C@H]1OC[C@H]3[C@@H]1CO[C@H]3c1ccc3c(c1)OCO3)OCO2 [ASARININ] | 200 nM
O=C1OC[C@H]2[C@@H]1CO[C@@H]2c1ccc2c(c1)OCO2 | > 20000 nM
O=C(O)[C@H]1CO[C@@H](c2ccc3c(c2)OCO3)[C@H]1CO | 3000 nM
